How the values were obtained:
[1] = molecular target: Beta-3 adrenergic receptor (Homo sapiens, UniProt P13945); test: Adrenoceptor reporter cell assay (ADRB3); assay type: functional
[2] = molecular target: Prostaglandin G/H synthase 2 (Homo sapiens) (UniProt P35354); test: Inhibition of Cyclooxygenase COX-2 at compound concentration of 10.0 uM in the Eurofins-Panlabs enzyme assay (Eurofins_assay_118010); set-up: substrate with concentration 0.3 uM Arachidonic acid, incubation time 15 min, incubation temperature 37 C; conditions: Compound concentration 10.0 uM
Chain of Prostaglandin G/H synthase 2 (Homo sapiens) (P35354 whole entry): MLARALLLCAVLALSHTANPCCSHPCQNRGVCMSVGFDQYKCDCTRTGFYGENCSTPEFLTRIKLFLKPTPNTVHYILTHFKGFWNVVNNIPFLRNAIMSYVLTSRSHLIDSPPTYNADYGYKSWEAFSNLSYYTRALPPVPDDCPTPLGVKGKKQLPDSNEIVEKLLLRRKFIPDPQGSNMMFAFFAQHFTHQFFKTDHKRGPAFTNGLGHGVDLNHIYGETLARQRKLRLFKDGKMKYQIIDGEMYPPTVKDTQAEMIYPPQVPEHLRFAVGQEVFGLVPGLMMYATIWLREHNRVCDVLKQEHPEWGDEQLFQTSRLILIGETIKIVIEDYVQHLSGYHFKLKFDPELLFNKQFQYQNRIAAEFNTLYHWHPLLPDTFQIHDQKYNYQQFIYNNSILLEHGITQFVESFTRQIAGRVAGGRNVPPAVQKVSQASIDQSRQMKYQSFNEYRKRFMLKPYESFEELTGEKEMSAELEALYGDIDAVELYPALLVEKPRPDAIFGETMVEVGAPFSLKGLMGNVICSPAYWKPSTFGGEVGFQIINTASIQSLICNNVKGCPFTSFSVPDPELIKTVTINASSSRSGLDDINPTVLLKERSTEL

[3] = molecular target: Glutamate receptor 2 (Homo sapiens) (UniProt P42262); conditions: Rattus norvegicus; Compound concentration 10.0 uM
Chain of Glutamate receptor 2 (Homo sapiens) (P42262 whole entry): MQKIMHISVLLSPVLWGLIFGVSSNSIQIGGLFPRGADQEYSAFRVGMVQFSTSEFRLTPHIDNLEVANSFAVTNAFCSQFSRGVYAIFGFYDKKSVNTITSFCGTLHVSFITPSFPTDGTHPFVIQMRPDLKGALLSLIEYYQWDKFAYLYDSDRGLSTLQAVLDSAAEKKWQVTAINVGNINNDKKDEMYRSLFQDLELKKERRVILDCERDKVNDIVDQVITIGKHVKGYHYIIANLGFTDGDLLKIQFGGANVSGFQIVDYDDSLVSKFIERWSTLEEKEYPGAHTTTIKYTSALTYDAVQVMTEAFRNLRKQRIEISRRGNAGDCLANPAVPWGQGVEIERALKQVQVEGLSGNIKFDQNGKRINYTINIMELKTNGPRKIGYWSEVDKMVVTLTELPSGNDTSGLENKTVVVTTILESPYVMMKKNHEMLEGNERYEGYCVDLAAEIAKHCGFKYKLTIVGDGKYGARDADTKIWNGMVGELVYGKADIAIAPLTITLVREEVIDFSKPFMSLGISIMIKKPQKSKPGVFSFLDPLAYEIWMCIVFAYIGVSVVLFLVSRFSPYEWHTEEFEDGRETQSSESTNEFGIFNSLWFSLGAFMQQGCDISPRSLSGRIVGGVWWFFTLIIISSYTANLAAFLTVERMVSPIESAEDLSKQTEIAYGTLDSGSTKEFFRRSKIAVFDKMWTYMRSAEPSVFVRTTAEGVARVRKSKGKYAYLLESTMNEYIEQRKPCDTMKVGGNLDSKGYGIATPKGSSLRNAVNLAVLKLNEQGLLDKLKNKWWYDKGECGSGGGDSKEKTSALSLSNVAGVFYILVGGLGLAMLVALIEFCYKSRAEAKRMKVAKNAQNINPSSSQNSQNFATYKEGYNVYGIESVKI

Sus scrofa = organism: Sus scrofa; test: Inhibition of ATPase, Na+/K+, Heart at compound concentration of 10.0 uM in the Eurofins-Panlabs enzyme assay (Eurofins_assay_107710); set-up: substrate with concentration; conditions: Compound concentration 10.0 uM

Chain of Beta-3 adrenergic receptor (P13945 whole entry): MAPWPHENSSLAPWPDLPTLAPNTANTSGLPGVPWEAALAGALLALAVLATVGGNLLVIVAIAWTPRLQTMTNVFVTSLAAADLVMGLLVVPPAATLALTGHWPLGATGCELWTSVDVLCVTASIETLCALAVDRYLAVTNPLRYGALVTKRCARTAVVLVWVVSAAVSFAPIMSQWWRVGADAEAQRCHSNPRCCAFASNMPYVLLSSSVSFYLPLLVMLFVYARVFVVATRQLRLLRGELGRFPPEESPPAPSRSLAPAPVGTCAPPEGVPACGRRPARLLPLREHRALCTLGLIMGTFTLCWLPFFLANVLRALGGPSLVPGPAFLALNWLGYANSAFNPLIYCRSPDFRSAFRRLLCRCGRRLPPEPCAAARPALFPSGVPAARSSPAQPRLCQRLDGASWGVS

## CNc1cc[n+](CCNC(=O)c2ccn3c(-c4c(C)noc4C)cnc3c2)cc1
[1]
  IC50: > 10 µM (not active)
[2]
  inhibition: -8.7%
[3]
  inhibition: -1.1%
Sus scrofa
  inhibition: -2.1%
